Where two headings read alike, the source gives them in different places.
Key:
[1] = Adverse events and dose-limiting toxicity (NCI-CTCAE v 4.03), MRZ ± BEV in recurrent grade IV malignant glioma patients; assay type: in vivo, human; conditions: treated with MRZ 0.8 mg/m^2 + BEV (N = 27)
Text: An adverse event (AE) is any noxious, unintended, or untoward medical occurrence that may appear or worsen in a subject during the course of a study. […] Any worsening (i.e., any clinically significant adverse change in the frequency or intensity of a pre-existing condition) should be considered an AE.
The severity/intensity of AEs will be graded based upon the subject's symptoms according to the current active minor version of the Common Terminology Criteria for Adverse Events ( ).

[2] = Bevacizumab serum pharmacokinetics, peak and trough (Part 1 Phase 1); assay type: in vivo, human; conditions: for Cmax D 1: C1D1; for Cmax D 15 / Cmin D 15: C1D15
Text: The drugs were infused on 28-Day Cycles.

[3] = tested on: WHO Grade IV malignant glioma; conditions: cited from earlier work
[4] = Day 0, 10 mg/kg dose (Gordon et al., 2001); cited from earlier work
[5] = Heiland (Freiburg, Germany), All Pts
[6] = Heiland (Freiburg, Germany), Methylated
[7] = Heiland (Freiburg, Germany), Unmethylated
[8] = Wick (EORTC 26101 P2), Methylated
[9] = Wick (EORTC 26101 P2), Unmethylated

For bevacizumab [reference compound], the “Dizziness related to the labelled drug(s), patients” value [1] was 1, the “Dysphonia related to the labelled drug(s)” value [1] was “(37.0%)” and the “Dysphonia related to the labelled drug(s), patients” value [1] was 10. The “Epistaxis related to the labelled drug(s)” value [1] was “(25.9%)”, the “Epistaxis related to the labelled drug(s), patients” value [1] was 7 and the “Fall related to the labelled drug(s)” value [1] was “(0.0%)”. The “Fall related to the labelled drug(s), patients” value [1] was 0, the “Fatigue related to the labelled drug(s)” value [1] was “(66.7%)” and the “Fatigue related to the labelled drug(s), patients” value [1] was 18. The “Hallucination related to the labelled drug(s)” value [1] was “(0.0%)”, the “Hallucination related to the labelled drug(s), patients” value [1] was 0 and the “Headache related to the labelled drug(s)” value [1] was “(22.2%)”. The “Headache related to the labelled drug(s), patients” value [1] was 6, the “Hypertension related to the labelled drug(s)” value [1] was “(40.7%)” and the “Infusion site pain related to the labelled drug(s)” value [1] was “(3.7%)”. The “Infusion site pain related to the labelled drug(s), patients” value [1] was 1, the “Muscular weakness related to the labelled drug(s)” value [1] was “(3.7%)” and the “Muscular weakness related to the labelled drug(s), patients” value [1] was 1. The “Nausea related to the labelled drug(s)” value [1] was “(7.4%)”, the “Platelet count decreased related to the labelled drug(s)” value [1] was “(11.1%)” and the “Platelet count decreased related to the labelled drug(s), patients” value [1] was 3. For the same substance, the “Stomatitis related to the labelled drug(s)” value [1] was “(7.4%)”, the “Upper-airway cough syndrome related to the labelled drug(s)” value [1] was “(18.5%)” and the “Upper-airway cough syndrome related to the labelled drug(s), patients” value [1] was 5. The “Vomiting related to the labelled drug(s)” value [1] was “(14.8%)”, the “mean Cmin” value ([2]; Day 15) was 95 µg/mL and the “Cmax D 1” value ([2]; MRZ 0.7 mg/m^2 cohort) was 193 ± 8 (2) μg/mL. The “Cmax D 15” value ([2]; MRZ 0.7 mg/m^2 cohort) was 402 ± 123 (3) μg/mL, the “Cmin D 15” value ([2]; MRZ 0.7 mg/m^2 cohort) was 81.1 ± 17.4 (2) μg/mL and the “Cmax D 1” value ([2]; MRZ 0.8 mg/m^2 cohort) was 267 ± 13.3 (3) μg/mL. The “Cmax D 15” value ([2]; MRZ 0.8 mg/m^2 cohort) was 380 ± 56.5 (2) μg/mL, the “Cmin D 15” value ([2]; MRZ 0.8 mg/m^2 cohort) was 85.0 ± 9.87 (3) μg/mL and the “mean Cmax” value ([2]; all dose cohorts, Day 1, 10 mg/kg) was 275 µg/mL. For the same substance, the pharmacokinetic parameters ([2]; co-administration with marizomib) was “consistent with published parameters and not affected by co-administration”, the “mean Cmax” value ([2]; second value printed for Day 1) was 379 µg/mL and the “6 mo Overall Survival” value ([3]; Field (CABARET), All Pts) was 61%. For the same substance, the “6 mo Progression Free Survival” value ([3]; Field (CABARET), All Pts) was 18%, the “9 mo Overall Survival” value ([3]; Field (CABARET), All Pts) was 39% and the “9 mo Progression Free Survival” value ([3]; Field (CABARET), All Pts) was 6%. For the same substance, the “12 Mo. Overall Survival” value ([3]; Field (CABARET), All Pts) was 24%, the “6 mo Overall Survival” value [3, 5] was 18% and the “9 mo Overall Survival” value [3, 5] was 30%. The “9 mo Progression Free Survival” value [3, 5] was 0%, the “12 Mo. Overall Survival” value [3, 5] was 10% and the “12 Mo. Progression Free Survival” value [3, 5] was 0%. For the same substance, the “6 mo Overall Survival” value [3, 6] was 58%, the “6 mo Progression Free Survival” value [3, 6] was 38% and the “9 mo Overall Survival” value [3, 6] was 40%. For the same substance, the “9 mo Progression Free Survival” value [3, 6] was 22%, the “12 Mo. Overall Survival” value [3, 6] was 24% and the “12 Mo. Progression Free Survival” value [3, 6] was 10%. The “6 mo Overall Survival” value [3, 7] was 25%, the “6 mo Progression Free Survival” value [3, 7] was 10% and the “9 mo Progression Free Survival” value [3, 7] was 0%. The “12 Mo. Progression Free Survival” value [3, 7] was 0%, the “6 mo Overall Survival” value ([3]; Taal (BELOB), All Pts) was 62% and the “6 mo Progression Free Survival” value ([3]; Taal (BELOB), All Pts) was 16%. For the same substance, the “9 mo Overall Survival” value ([3]; Taal (BELOB), All Pts) was 45%, the “9 mo Progression Free Survival” value ([3]; Taal (BELOB), All Pts) was 8% and the “12 Mo. Overall Survival” value ([3]; Taal (BELOB), All Pts) was 26%. For the same substance, the “6 mo Overall Survival” value ([3]; Taal (BELOB), Methylated) was 83%, the “6 mo Progression Free Survival” value ([3]; Taal (BELOB), Methylated) was 33% and the “9 mo Overall Survival” value ([3]; Taal (BELOB), Methylated) was 67%. The “9 mo Progression Free Survival” value ([3]; Taal (BELOB), Methylated) was 22%, the “12 Mo. Overall Survival” value ([3]; Taal (BELOB), Methylated) was 56% and the “6 mo Overall Survival” value ([3]; Taal (BELOB), Unmethylated) was 50%. For the same substance, the “6 mo Progression Free Survival” value ([3]; Taal (BELOB), Unmethylated) was 8%, the “9 mo Progression Free Survival” value ([3]; Taal (BELOB), Unmethylated) was 0% and the “12 Mo. Overall Survival” value ([3]; Taal (BELOB), Unmethylated) was 8%. The “12 Mo. Progression Free Survival” value ([3]; Taal (BELOB), Unmethylated) was 0%, the “6 mo Progression Free Survival” value ([3]; Wick (EORTC 26101 P2), All Pts) was 14% and the “9 mo Progression Free Survival” value ([3]; Wick (EORTC 26101 P2), All Pts) was 9%. The “12 Mo. Progression Free Survival” value ([3]; Wick (EORTC 26101 P2), All Pts) was 8%, the “6 mo Progression Free Survival” value [3, 8] was 25% and the “9 mo Progression Free Survival” value [3, 8] was 9%. For the same substance, the “12 Mo. Progression Free Survival” value [3, 8] was 9%, the “6 mo Progression Free Survival” value [3, 9] was 10% and the “9 mo Progression Free Survival” value [3, 9] was 10%. The “12 Mo. Progression Free Survival” value [3, 9] was 10%, the “6-month progression-free survival (PFS) rate” value ([3]; recurrent G4 MG, BEV alone) was about 43% and the “median overall survival (OS)” value ([3]; recurrent G4 MG, BEV alone) was about 9 months. For the same substance, the Cmax [4] was 284 µg/mL.
